{"source": "patent US20120207753A1", "about": "“METHODS OF USING CD44 FUSION PROTEINS TO TREAT CANCER” (CENTRE HOSPITALIER UNIVERSITAIRE VAUDOIS, priority 2009, published 2012)", "key": {"U251 cells": {"system": "U251 cells", "assay": "Intracranial tumor growth and survival, transduced U251 cells in Rag-1 mice", "format": "in vivo, human", "details": "single dose BCNU 10 mg/kg iv or TMZ 5 mg/kg ip", "experimental": "(§1) FIG. 12. Antagonists of CD44 are effective therapeutic agents against human GBM in mouse models. A, U87MG and U251 cells were transduced with the retroviruses carrying empty vector and the expression constructs of hsCD44s-Fc, hsCD44v8-v10-Fc, and hsCD44v3-v10 and their serum free cell culture supernatants were collected and analyzed on Western blots using anti-CD44 antibody (Santa Cruz) or anti-human IgG antibody. The molecular weight bars correspond to 199 kDa and 116 kDa. B, 2×10^6 of the transduced U87MG and U251 cells were injected subcutaneously per mouse. Growth rates of the subcutaneous tumors were determined and expressed as the mean of tumor volume (mm^3)+/−SD. Six mice were used for each construct. C, Survival rates of mice following the intracranial injections of transduced U87MG (C-a) and U251 (C-b-c) cells infected with the retroviruses carrying the empty expression vectors, hsCD44s-Fc, hsCD44v8-v10-Fc, hsCD44v3-v10, hsCD44sR41A-Fc, or hsCD44v3-v10R41A-Fc constructs as indicated in the panels. […]\n(§2) Mice were used in accordance with the approved IACUC Protocol. […] Following injection, mice were closely monitored and the duration of their survival was recorded. […] Number of surviving mice was recorded. The survival rates were calculated as follows: survival rate (%)=(number of mice still alive/total number of experimental mice)×100%. […]"}, "U87MG cells": {"system": "U87MG cells", "assay": "Intracranial tumor growth and survival, transduced U87MG cells in Rag-1 mice", "format": "in vivo, human", "details": "single dose BCNU 10 mg/kg iv or TMZ 5 mg/kg ip", "experimental": "as §1, §2"}}}
{"molecule": "O=NN(CCCl)C(=O)NCCCl", "note": "[BCNU, carmustine]", "values": [{"measurement": "inhibition of intracranial glioma formation (median survival), drug combined with CD44 knockdown", "setting": "U251 cells; intracranial U251-Luc depleted of CD44", "value": "synergistic inhibition of intracranial glioma formation"}, {"measurement": "inhibitory effect on glioma growth as single agent", "setting": "U251 cells; intracranial U251-Luc", "value": "weak"}, {"measurement": "inhibition of intracranial glioma formation (median survival), drug combined with CD44 knockdown", "setting": "U87MG cells; intracranial U87MG-Luc depleted of CD44", "value": "synergistic inhibition of intracranial glioma formation"}, {"measurement": "inhibitory effect on glioma growth as single agent", "setting": "U87MG cells; intracranial U87MG-Luc", "value": "weak"}]}
